The source of these data is paper PMC11040934, “PI3Kγδ inhibition suppresses key disease features in a rat model of asthma” (Respiratory Research, 2024).

In one experiment the test system is PI3K pathway (pAkt). The experiment can be described thus: Rat model of allergic asthma: lung tissue pAkt (T308), target engagement. The class given is in vivo, Brown Norway rat. The conditions noted are these: i.t. 1 hr before OVA challenge; AZD8154 0.02, 0.1, 0.3 mg/kg, budesonide 3 mg/kg; lung 2 hrs after challenge. Here is the method: Male, adult, Brown Norway rats were obtained from Charles River Germany at a body weight range of 250-300 g. Animals were housed in temperature controlled individually ventilated cages in groups of 4 with food and water provided ad libitum. Animals underwent acclimatisation for at least 1 week prior to experimentation. Experiments were performed in accordance with the UK Home Office guidelines for animal welfare based on the Animals (Scientific Procedures) Act of 1986 and the ARRIVE guidelines (Fig. E2).
Initially a time course study was performed, followed by a characterisation study with compound & clinical comparator. […]
5 μL of supernatant (1:50 dilution) was taken for Bradford Assay which was run according to manufacturers’ instructions (BioRad, USA). […] Absorbance was measured using a spectrophotometer and total protein values interpolated to standard curve (595 nm; Spectromax, UK).
10 μg of protein from lung tissue extract were utilized in pAkt (T308); pSTAT3, pSTAT4 & STAT5a, b (Phospho-STAT Panel kit) MSD Assay plates (Meso Scale Delivery, USA) and run according to manufacturers’ instructions. Arbitrary electrochemiluminescence signals were read, the blank subtracted and values determined in each plate using a MSD S-Plex plate reader (Meso Scale Delivery, USA).

The target of a further experiment is T1, rat PI3Kδ (Rattus norvegicus, UniProt A0A8I5Y949).
T1 sequence (A0A8I5Y949 1-1047): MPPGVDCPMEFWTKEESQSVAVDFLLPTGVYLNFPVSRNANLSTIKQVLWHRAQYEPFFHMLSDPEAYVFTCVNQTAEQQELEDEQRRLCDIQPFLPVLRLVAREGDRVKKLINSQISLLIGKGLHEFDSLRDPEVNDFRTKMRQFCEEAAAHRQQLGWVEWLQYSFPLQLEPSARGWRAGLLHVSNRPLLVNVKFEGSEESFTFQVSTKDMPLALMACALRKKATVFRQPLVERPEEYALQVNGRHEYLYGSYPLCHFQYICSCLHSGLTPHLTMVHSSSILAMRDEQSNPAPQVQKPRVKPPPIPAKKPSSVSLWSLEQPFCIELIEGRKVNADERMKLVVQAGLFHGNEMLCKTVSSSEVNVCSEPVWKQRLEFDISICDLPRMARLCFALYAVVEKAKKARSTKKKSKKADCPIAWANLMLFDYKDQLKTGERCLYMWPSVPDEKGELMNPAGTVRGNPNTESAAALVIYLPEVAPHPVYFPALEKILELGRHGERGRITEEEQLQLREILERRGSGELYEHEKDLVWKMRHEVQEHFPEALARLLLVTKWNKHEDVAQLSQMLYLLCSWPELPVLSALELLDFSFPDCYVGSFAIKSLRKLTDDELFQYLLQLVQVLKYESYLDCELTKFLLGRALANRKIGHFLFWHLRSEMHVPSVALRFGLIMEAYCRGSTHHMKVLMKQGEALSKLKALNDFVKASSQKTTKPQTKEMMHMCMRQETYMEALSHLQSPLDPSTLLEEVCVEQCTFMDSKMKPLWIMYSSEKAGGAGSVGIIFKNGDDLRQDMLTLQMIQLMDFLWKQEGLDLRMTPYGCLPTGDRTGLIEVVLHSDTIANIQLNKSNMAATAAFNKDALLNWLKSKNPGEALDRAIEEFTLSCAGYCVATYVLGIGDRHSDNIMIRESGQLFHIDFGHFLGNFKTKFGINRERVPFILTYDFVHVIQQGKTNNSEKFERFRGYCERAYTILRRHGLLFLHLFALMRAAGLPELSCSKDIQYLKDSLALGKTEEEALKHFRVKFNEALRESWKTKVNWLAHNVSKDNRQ
The experiment in a line: PI3K δ assay: anti-IgM-stimulated CD86 expression on rat splenic B cells (FACS). The class given is cell-based. The conditions noted are these: mean ± SEM, n = 3. On the procedure: PI3K δ assay: single cell suspension was obtained from the spleen of male Sprague Dawley rat; cells were cultured in RPMI containing heat-inactivated 10% FBS, pre-treated (1 hr., 37 °C, 5% CO2) with vehicle DMSO or PI3K inhibitors, followed by stimulation with AffiniPure F(ab’)2 Fragment Goat Anti-Rat IgM, μ chain specific, Jackson Immunoresearch (112–006-075) at 5 μg/mL (EC80 determined in house; 20–22 hrs). Then, cells were washed with FACS buffer (2% FBS, […]) and stained (15 mins, 4 °C) with Fc block (1:100, 550,273, BD bioscience), LIVE/DEAD Fixable Aqua Dead Cell Stain Kit (L34957, Invitrogen, 1:300), CD45R (B220)-PeCy7 (HIS24) (25–0460-82, eBioscience, 1:100), CD3-AF647 (IF4) (201,408, Biolegend, 1:100), CD86-FITC (24F) (200,305, Biolegend, 1:50). Cells were acquired on the Flow Cytometer (BD LSRFortessa™) and analysed using FlowJo 9.9 software (TreeStar). FACS gating strategy: lymphocytes (FSC-A vs SSC-A), doublets exclusion (FSC-W vs FSC-H), live cells (Aqua-530-), B cell identification CD3- B220 + % of positive B cells for CD86. IC50 values were determined in Graph Pad through a nonlinear fit on log transform data: log inhibitor vs response, variable slope, 4 parameters. Fraction unbound in in vitro assay is calculated using the following equation: fu^′=DF·fup/1+DF-1·fup where fu’ is the fraction unbound in assay media; fup is the experimentally determined fraction unbound in undiluted human plasma; DF is the dilution factor (fold difference between protein concentration in human plasma and assay media, using an albumin concentration of 600 μM (40 g/L) for undiluted plasma) Table 2.

The structures appear in SMILES notation. Where two headings read alike, the source gives them in different places.

Turning to `Cc1nc(Nc2cccc(N3CCCC3=O)n2)sc1-c1cc2c(c(S(C)(=O)=O)c1)C(=O)N([C@@H](C)C1CC1)C2` [AZD8154], the “lung tissue pAkt levels” value in the experiment with PI3K pathway (pAkt) is recorded as “dose related suppression”. For the same molecule, the IC50 at rat PI3Kδ (CD86 expression on B cells, read-out: rat δ total IC50) stood at 10.5 ± 6.2 nM; at rat PI3Kδ (corrected for protein binding in the assay, read-out: rat δ free IC50), 0.63 ± 0.37 nM.
